Data published in PubChem BioAssay (NCI).
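Assay format: 96-well plates, 48-hour exposure. TGI is the concentration that stops growth completely.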

Each molecule was assayed on 786-0 renal (assay: inhibition of tumour cell growth, NCI panel, 48 h).

Structure (SMILES)	TGI
O=C(CC1C(=O)Nc2ccccc2S1=O)Nc1cc(Cl)ccc1Cl (stereo not drawn)	> 100 µM
CN(C)C(=S)/N=c1\sn(C)/c(=N\C(=S)N(C)C)n1C	> 100 µM
COC(=O)C1CCCC2(C1)OCCO2 (stereo not drawn)	> 100 µM
COC(=O)/C(C#N)=C1\N=NNN1c1ccc(OC)cc1	> 100 µM
COC(=O)/C(=C/c1ccc(OC)cc1)C(C(=O)O)=C1CCCC1	> 100 µM
N#C/C(=C\c1ccc2ccccc2c1)C(=O)c1ccccc1	> 85.5 µM
O=C1N=C2Sc3ccc4ccccc4c3N2C1=O	36.1 µM

These molecules were tested on A498 renal (assay: inhibition of tumour cell growth, NCI panel, 48 h).

Structure (SMILES)	TGI
O=C(CC1C(=O)Nc2ccccc2S1=O)Nc1cc(Cl)ccc1Cl (stereo not drawn)	> 100 µM
CN(C)C(=S)/N=c1\sn(C)/c(=N\C(=S)N(C)C)n1C	> 100 µM
COC(=O)C1CCCC2(C1)OCCO2 (stereo not drawn)	> 100 µM
COC(=O)/C(C#N)=C1\N=NNN1c1ccc(OC)cc1	> 100 µM
COC(=O)/C(=C/c1ccc(OC)cc1)C(C(=O)O)=C1CCCC1	> 100 µM
N#C/C(=C\c1ccc2ccccc2c1)C(=O)c1ccccc1	> 100 µM

The molecules below were run on A549 NSCLC (assay: inhibition of tumour cell growth, NCI panel, 48 h).

Structure (SMILES)	TGI
O=C(CC1C(=O)Nc2ccccc2S1=O)Nc1cc(Cl)ccc1Cl (stereo not drawn)	> 100 µM
CN(C)C(=S)/N=c1\sn(C)/c(=N\C(=S)N(C)C)n1C	> 100 µM
COC(=O)C1CCCC2(C1)OCCO2 (stereo not drawn)	> 100 µM
COC(=O)/C(C#N)=C1\N=NNN1c1ccc(OC)cc1	> 100 µM
COC(=O)/C(=C/c1ccc(OC)cc1)C(C(=O)O)=C1CCCC1	> 100 µM
N#C/C(=C\c1ccc2ccccc2c1)C(=O)c1ccccc1	> 100 µM
O=C1N=C2Sc3ccc4ccccc4c3N2C1=O	41.2 µM

Each molecule was assayed on ACHN renal (assay: inhibition of tumour cell growth, NCI panel, 48 h).

Structure (SMILES)	TGI
O=C(CC1C(=O)Nc2ccccc2S1=O)Nc1cc(Cl)ccc1Cl (stereo not drawn)	> 100 µM
CN(C)C(=S)/N=c1\sn(C)/c(=N\C(=S)N(C)C)n1C	> 100 µM
COC(=O)C1CCCC2(C1)OCCO2 (stereo not drawn)	> 100 µM
COC(=O)/C(C#N)=C1\N=NNN1c1ccc(OC)cc1	> 100 µM
COC(=O)/C(=C/c1ccc(OC)cc1)C(C(=O)O)=C1CCCC1	> 100 µM
N#C/C(=C\c1ccc2ccccc2c1)C(=O)c1ccccc1	> 100 µM
O=C1N=C2Sc3ccc4ccccc4c3N2C1=O	82.3 µM

The molecules below were run on BT-549 breast (assay: inhibition of tumour cell growth, NCI panel, 48 h).

Structure (SMILES)	TGI
N#C/C(=C\c1ccc2ccccc2c1)C(=O)c1ccccc1	> 100 µM

These molecules were tested on CAKI-1 renal (assay: inhibition of tumour cell growth, NCI panel, 48 h).

Structure (SMILES)	TGI
O=C(CC1C(=O)Nc2ccccc2S1=O)Nc1cc(Cl)ccc1Cl (stereo not drawn)	> 100 µM
CN(C)C(=S)/N=c1\sn(C)/c(=N\C(=S)N(C)C)n1C	> 100 µM
COC(=O)C1CCCC2(C1)OCCO2 (stereo not drawn)	> 100 µM
COC(=O)/C(C#N)=C1\N=NNN1c1ccc(OC)cc1	> 100 µM
COC(=O)/C(=C/c1ccc(OC)cc1)C(C(=O)O)=C1CCCC1	> 100 µM
N#C/C(=C\c1ccc2ccccc2c1)C(=O)c1ccccc1	> 100 µM
O=C1N=C2Sc3ccc4ccccc4c3N2C1=O	46.2 µM

What follows are molecules tested on CCRF-CEM leukemia (assay: inhibition of tumour cell growth, NCI panel, 48 h).

Structure (SMILES)	TGI
O=C(CC1C(=O)Nc2ccccc2S1=O)Nc1cc(Cl)ccc1Cl (stereo not drawn)	> 100 µM
COC(=O)C1CCCC2(C1)OCCO2 (stereo not drawn)	> 100 µM
COC(=O)/C(C#N)=C1\N=NNN1c1ccc(OC)cc1	> 100 µM
COC(=O)/C(=C/c1ccc(OC)cc1)C(C(=O)O)=C1CCCC1	> 100 µM
N#C/C(=C\c1ccc2ccccc2c1)C(=O)c1ccccc1	63.7 µM
O=C1N=C2Sc3ccc4ccccc4c3N2C1=O	> 100 µM

Each molecule was assayed on COLO 205 colon (assay: inhibition of tumour cell growth, NCI panel, 48 h).

Structure (SMILES)	TGI
CN(C)C(=S)/N=c1\sn(C)/c(=N\C(=S)N(C)C)n1C	> 100 µM
COC(=O)C1CCCC2(C1)OCCO2 (stereo not drawn)	> 100 µM
COC(=O)/C(C#N)=C1\N=NNN1c1ccc(OC)cc1	> 100 µM
COC(=O)/C(=C/c1ccc(OC)cc1)C(C(=O)O)=C1CCCC1	> 100 µM
N#C/C(=C\c1ccc2ccccc2c1)C(=O)c1ccccc1	> 100 µM
O=C1N=C2Sc3ccc4ccccc4c3N2C1=O	> 100 µM

The molecules below were run on DLD-1 colon (assay: inhibition of tumour cell growth, NCI panel, 48 h).

Structure (SMILES)	TGI
O=C(CC1C(=O)Nc2ccccc2S1=O)Nc1cc(Cl)ccc1Cl (stereo not drawn)	> 100 µM
